According to publication PMC11666850, “Development and evaluation of deuterated [^18F]JHU94620 isotopologues for the non-invasive assessment of the cannabinoid type 2 receptor in brain” (EJNMMI Radiopharmacy and Chemistry, 2024):
pKd, pKi: −log10 of the molar value. Where two headings read alike, the source gives them in different places.

Columns and labels:
[1] = molecular target: CB2R; settings: cited from earlier work
[2] = molecular target: CB1R; settings: cited from earlier work
[3] = molecular target: T1, CB2R (Rattus norvegicus, UniProt Q9QZN9); experiment: Quantitative autoradiography, rat spleen cryosections; type: binding; settings: 100 nM CB2R PAM, rat spleen
T1 construct: from tissue; host or cells: rat spleen: cryosections in vitro, and spleen of living Wistar rats in PET
T1 sequence (Q9QZN9 1-360): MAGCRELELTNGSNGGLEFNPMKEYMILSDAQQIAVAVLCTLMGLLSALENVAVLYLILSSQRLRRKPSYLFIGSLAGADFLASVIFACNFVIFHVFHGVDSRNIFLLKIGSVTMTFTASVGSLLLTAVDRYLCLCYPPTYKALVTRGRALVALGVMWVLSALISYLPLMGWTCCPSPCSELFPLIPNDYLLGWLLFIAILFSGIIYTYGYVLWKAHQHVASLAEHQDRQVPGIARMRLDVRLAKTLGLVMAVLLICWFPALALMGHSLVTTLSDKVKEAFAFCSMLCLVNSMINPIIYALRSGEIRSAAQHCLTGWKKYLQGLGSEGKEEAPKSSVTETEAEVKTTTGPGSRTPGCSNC
Experimental: For quantitative autoradiography in different species, 10 µm cryosections from mouse, rat and piglet spleen were thawed, dried, and pre-incubated with incubation buffer for 10 min, dried under an airstream. Subsequently, the incubation buffer containing [^18F]JHU94620-d8 (59–137 GBq µmol^−1, 1.7–3.6 nM) was added alone or together with indicated concentrations of the reference compound. Additionally, to assess the non-specific binding of [^18F]JHU94620-d8 to cryosections GW405833 was added instead of the reference compound. After 90 min, cryosections were washed two times for 2 min with ice-cold 50 mM Tris HCl, pH7.4 and 10 s in ddH2O and subsequently dried under an airstream. For the calculation of the radioactivity concentration, 5 µl of five serial 1:2 dilutions of the incubation buffer with [^18F]JHU94620-d8 were air-dried on a microscopic slide. For binding studies in rat spleen cryosections by autoradiography with HLM-derived radiometabolites of [^18F]JHU94620-d8 obtained from the radiometabolite assay, the samples were added to the incubation buffer to a final activity concentration of 0.2 MBq mL^−1 and protocol was followed as described above. Subsequently, the slides were exposed to a phosphor imager plate. After scanning at high sensitivity and a 12.5 µm resolution with a CR35 Bio image plate scanner (Raytest Isotopenmessgeräte GmbH, Straubenhardt, Germany). The analyses of the autoradiographic images were performed with the AIDA 5.1 software (Elysia-Raytest, Angleur, Belgium) resulting in a resolution of 12.617 pixel × 12.616 pixel per µm^2 (1 voxel = 1592 µm^3 ≙ 1.59 10^–3 µg wet tissue) and inhibition curves were created with GraphPad Prism 9.5.1 (GraphPad Inc., La Jolla, CA).
(§1) The KD values were calculated with GraphPad Prism according to the modified Cheng-Prusoff method for homologous competitive binding studies, where the KD = Ki = IC50—[radioligand] and the Bmax = specific binding / [radioligand] / ((KD + [radioligand])) (Motulsky and Neubig [2000]), assuming a total protein content of 8.2% (1.3 10^–4 µg protein per voxel) in the spleen (Zaia et al. [2000]) or by determining the protein concentration of the cell membrane lysates using a BCA assay (Thermo Scientific, Braunschweig, Germany). The fractional occupancy defined as occupied binding sites per total binding sites is used to describe the binding fraction specifically bound to CB2R compared to unspecific binding, where [L] is the concentration of the ligand at the start of incubation.

[4] = molecular target: T2, human CB2R (hCB2R) (Homo sapiens, UniProt P34972); experiment: Homologous competition binding, CHO(hCB2R) cell membranes
T2 construct: expressed in transfected cells; host or cells: CHO(hCB2R) cells, obtained from Paul L. Prather, University of Arkansas for Medical Sciences
T2 sequence (P34972 whole entry): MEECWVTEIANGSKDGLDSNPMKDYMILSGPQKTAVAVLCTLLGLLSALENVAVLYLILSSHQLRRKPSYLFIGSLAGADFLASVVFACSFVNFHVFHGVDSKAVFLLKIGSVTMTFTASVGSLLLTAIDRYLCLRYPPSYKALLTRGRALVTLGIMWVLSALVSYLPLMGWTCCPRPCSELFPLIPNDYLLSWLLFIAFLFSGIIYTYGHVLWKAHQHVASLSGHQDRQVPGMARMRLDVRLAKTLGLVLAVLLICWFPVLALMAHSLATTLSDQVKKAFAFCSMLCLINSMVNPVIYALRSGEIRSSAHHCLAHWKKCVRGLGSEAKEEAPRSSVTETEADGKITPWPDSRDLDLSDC
Experimental: For binding studies crude homogenates of CHO(hCB2R) cells (obtained from Paul L. Prather, Department of Pharmacology and Toxicology, College of Medicine, University of Arkansas for Medical Sciences, USA) were incubated with the reference compound (self-blocking) or the CB2R-specific partial agonist GW405833 (Tocris Bioscience, Bristol, UK) with indicated concentrations at room temperature for 90 min. The total volume of 1 mL of each sample consisted of 600 µL incubation buffer (50 mM Tris HCl pH7.4, 5 mM MgCl2, 1 mM EDTA and 1% Bovine Serum Albumin), 200 µL cell membrane homogenates, 100 µL competitor or binding buffer (total binding) and 100 µl of binding buffer with [^18F]JHU94620-d8 (about 100 kBq per vial, corresponding to 0.8 to 1.6 nM). Incubation was terminated by rapid filtration through a GF-B glass fibre filter, pre-treated with 0.5% PVP with 0.1% Tween 20 solution, using a 48-well cell harvester, washed six times with buffer and filter bound activity was subsequently measured in a γ-counter (1480 WIZARD, Perkin Elmer, Turku, Finland).
as §1

[5] = molecular target: T1, CB2R; type: in vivo; settings: Wistar rats, i.v. pre-treatment 5 min prior tracer, between 2.5 and 20 min p.i., 1-way ANOVA p < 0.05
Experimental: The dynamic biodistribution of the radiotracer in the lower body of rats was assessed by small animal PET (Nanoscan, Mediso, Hungary) over 60 min with a subsequently T1-weighted MR. Anaesthetized (2% isoflurane, carrier gas mixture of 40% air and 60% O2) male Wistar rats (body weight: 205–308 g, age: 8–10 weeks, no gender-specific differences were taken into account) were kept during imaging on a heated animal bed to sustain body temperature and were pretreated with vehicle (DMSO:Kolliphore EL:0.9% saline, 1:2:7), JHU94620-d8 (1.5 mg kg^−1 bodyweight) or with GW405833 (5 mg kg^−1 bodyweight) 5 min prior tracer application ([^18F]JHU94620-d8: 7.7–28.2 MBq, 0.4 to 3.2 nmol kg^−1 bodyweight), whereby all injections were administered intravenously. For the evaluation of the hCB2R-specific binding of the radiotracer in the brain, female Wistar rats (n = 6, 253–269 g, age: 8 month) were used carrying stereotactically injected constructs of AAV2/7-CaMKII0.4-intron-hCB2R(D80N) in the right striatum and AAV2/7-CaMKII0.4-intron-3flag-eGFP in the control/contralateral striatum (Vandeputte et al. [2011]). 21–26 MBq corresponding to 0.2 to 2.0 nmol kg^−1 bodyweight radiotracer were injected, whereas in displacement studies 5 mg kg^−1 bodyweight GW405833 was administered 20 min after the radiotracer (each n = 3). The PET scans were performed six months after the stereotactic injections of the AAV2/7-constructs.
The acquisitions were performed in normal mode and a coincidence mode 1–5. For subsequent dynamic reconstructions list mode data were sorted into sinograms (12 × 10 s, 6 × 30 s, 5 × 60 s and 10 × 300 s). The frames were reconstructed by Ordered Subset Expectation Maximization applied to 3D (OSEM3D) sinograms corrected for decay and attenuation (4 iterations, 6 subsets and a voxel size of 0.4 mm^3) with the Nucline software v2.01 (Mediso, Budapest, Hungary). Analyses of reconstructed studies were performed with PMOD software (v4.205, PMOD Technologies LLC, Fällanden, Switzerland) and results are expressed in standardized uptake values (SUVs) or normalized to a reference region (SUVr).

[6] = molecular target: hCB2R(D80N) (Homo sapiens, UniProt P34972, D80N); experiment: Homologous displacement autoradiography, brain cryosections of rats with hCB2R(D80N) overexpression; type: binding; settings: hCB2R(D80N) region, 10 µm rat brain cryosections, homologous displacement, n = 3; read-out: KD
Sequence of hCB2R(D80N) (P34972 whole entry D80N): as the sequence (P34972 whole entry) above, with D80N counted along it

[7] = molecular target: T3, CB2R (Mus musculus, UniProt P47936); parameters: method as in Govaerts et al. [2004]; settings: mouse spleen; ref Govaerts et al. [2004]; cited from earlier work
T3 construct: from tissue; host or cells: mouse spleen cryosections
T3 sequence (P47936 whole entry): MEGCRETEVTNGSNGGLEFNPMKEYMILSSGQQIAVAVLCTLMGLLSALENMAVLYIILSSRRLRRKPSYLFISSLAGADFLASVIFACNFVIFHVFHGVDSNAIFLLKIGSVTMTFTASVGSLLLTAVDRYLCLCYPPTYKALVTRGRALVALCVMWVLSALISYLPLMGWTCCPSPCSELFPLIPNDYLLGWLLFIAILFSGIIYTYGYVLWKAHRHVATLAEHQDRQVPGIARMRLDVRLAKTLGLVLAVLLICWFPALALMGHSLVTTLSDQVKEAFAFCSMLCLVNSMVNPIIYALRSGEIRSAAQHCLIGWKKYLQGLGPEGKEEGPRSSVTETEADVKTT

[8] = molecular target: T1, CB2R; parameters: method as in Govaerts et al. [2004]; settings: rat spleen; ref Govaerts et al. [2004]; cited from earlier work
[9] = Ex vivo radiometabolite analysis in CD-1 mice; settings: CD-1, mouse, in vivo, 30 min
Experimental: Female adult CD-1 mice (25–42 g body weight) were used for radiometabolite analysis of [^18F]JHU94620-d4 (n = 2, 33 and 34 MBq) and [^18F]JHU94620-d8 (n = 3, 26–33 MBq) at 30 min after intravenous tail vein injection of the radiotracer to allow for the comparison of radiometabolite analysis of [^18F]JHU94620 (Moldovan et al. [2016]). The mice were immobilized by short isoflurane narcosis for the injection of the radiotracer in a restrainer and awakened mice were kept in an isolated cage until euthanisation by cervical dislocation under isoflurane narcosis. Male Wistar rats (n = 12, 613–794 g) were used for radiometabolite analysis of [^18F]JHU94620-d8 at different time points (5, 15, 30 and 60 min p.i.) after intravenous tail vein injection of the radiotracer (37–74 MBq) for the correction of the input function in pharmacokinetic analysis. Rats were kept under isoflurane narcosis (gas mixture: 2.5% isoflurane and O2) on a warmed plate until euthanization by decapitation of deep narcotized animals. Plasma samples were obtained by centrifugation with 5500 g of blood samples for 2 min at 4 °C. Resected tissues brain and spleen were kept on ice and minced for 3 × 20 s with adding 0.5 to 1 mL of 0.9% NaCl using a Precellys lysing kit and Minilys homogenizer (Bertin Technologies SAS, Montigny-le-Bretonneux, France).
The samples were further processed for subsequent radio-chromatographic analyses. Two consecutive extractions were performed in duplicates for plasma and brain determinations. Plasma, brain and spleen samples were added to the four time the volume of an ice-cold MeOH/H2O mixture (9:1, v/v). The samples were vortexed for 3 min, incubated on ice for 5 min and centrifuged at 8,600 g for 5 min. Supernatants were collected and the precipitates were re-dissolved in 100 µL of extraction solvent and the extraction procedure was repeated. The activities of supernatants and precipitates were measured in a γ-counter (1480 WIZARD, Perkin Elmer), and the extraction efficiencies were calculated as the ratio of radioactivity in the supernatant to the radioactivity in the original sample (supernatant + precipitate). The supernatants from both extractions were combined, concentrated at 70 °C under argon stream up to a remaining volume of 100 µL, and subsequently analysed by analytical radio-HPLC (method A or B).

[10] = cited from earlier work
[11] = pH 7.4; cited from earlier work
[12] = molecular target: hCB2R; parameters: method as in Moldovan et al. [2016]; settings: ref Moldovan et al. [2016]; cited from earlier work
[13] = molecular target: hCB1R; parameters: method as in Moldovan et al. [2016]; settings: ref Moldovan et al. [2016]; cited from earlier work
[14] = ref McPartland et al. [2007], Kosar et al. [2024]
[15] = ref Caillé et al. [2017], Auvity et al. [2024]

## CCCCC/C=C\C/C=C\C/C=C\C/C=C\CCCC(=O)OC(CO)CO [2-AG, 2-arachydonilglycerol]
[1]; [14]
  pKi: 5.92

## CCCCC/C=C\C/C=C\C/C=C\C/C=C\CCCC(=O)NCCO [AEA, anandamide]
[2]; [14]
  pKi: 6.62
[1]; [14]
  pKi: 6.36

## Cc1c(Br)cn(Cc2ccc(F)cc2)c(=O)c1NC(=O)C1CCCCCC1 [CB2R PAM, reference compound]
[3]
  effect of co-incubation on the binding of [^18F]JHU94620-d8: did not increase the binding
[4]; 100 nM CB2R PAM, CHO(hCB2R) cell membranes
  effect of co-incubation on the binding of [^18F]JHU94620-d8: did not increase the binding
[4]; CB2R PAM binding assay, Figure S9 as cited
  competition with [^18F]JHU94620-d8 binding: weak competitive binding

## COc1ccc2c(c1)c(CCN1CCOCC1)c(C)n2C(=O)c1cccc(Cl)c1Cl [GW405833, reference compound]
[5]
  blocking of [^18F]JHU94620-d8 uptake into the spleen: significantly blocked

## [2H]C([2H])(F)C([2H])([2H])C([2H])([2H])C([2H])([2H])n1c(C)c(C)s/c1=N\C(=O)C1C(C)(C)C1(C)C [JHU94620-d8, (Z)-N-(3-(4-Fluorobutyl-1,1,2,2,3,3,4,4-d8)-4,5-dimethylthiazol-2(3H)-ylidene)-2,2,3,3-tetramethylcyclopropane-1-carboxamide]
[6]
  pKd: 7.38
[5]
  blocking of [^18F]JHU94620-d8 uptake into the spleen: significantly blocked

## CCCCCCC(C)(C)c1ccc([C@@H]2C[C@H](O)CC[C@H]2CCCO)c(O)c1 [[^3H]CP55940]
[7]
  Bmax: 0.31 ± 0.03 pmol mg^−1 protein
[8]
  Bmax: 0.71 ± 0.02 pmol mg^−1 protein

## Cc1s/c(=N\C(=O)C2C(C)(C)C2(C)C)n(CCOCC[18F])c1C [[^18F]FC0324, (Z)-N-(3-(2-(2-[^18F]Fluoroethoxy)ethyl)-4,5-dimethylthiazol-2(3H)-ylidene)-2,2,3,3-tetramethylcyclopropane-1-carboxamide]
[2]; [15]
  pKi: 7.52
[1]; [15]
  pKi: 10.00

## Cc1s/c(=N\C(=O)C2C(C)(C)C2(C)C)n(CCCC[18F])c1C [[^18F]JHU94620]
[9]
  percentage printed at the radiotracer peak of the representative radio-HPLC chromatogram (Mice): 37%
[10]; CD-1 mouse brain, 30 min p.i., ref Moldovan et al. [2016]
  parent fraction in brain: 0.36
[10]; mouse, in vivo
  parent fraction in plasma: 0.07
[11]
  LogD7.4: 3.2
[12]
  pKi: 9.40
[13]
  pKi: 6.42

## Δ^9-trans-tetrahydrocannabinol [THC]
[2]; [14]
  pKi: 7.60
[1]; [14]
  pKi: 7.44
